Experimental data as given in PMC2924647 (The EMBO Journal, 2010).
Like-named read-outs stand apart in the source and are kept apart here. Positions of bridges follow the written chain, without caps; N, C: chain ends. Chains are numbered I, II in the order given. No end group written: not given here.

Tests used:
[1] = test system: relaxin-stimulated cAMP via RXFP1; assay type: cell-based
[2] = test system: basal cAMP in cells expressing RXFP1; assay type: cell-based
[3] = test system: basal cAMP in cells expressing RXFP2 or pcDNA; test: Effect of PDE inhibition on basal cAMP, HEK293 expressing RXFP2 or pcDNA; assay type: cell-based; settings: IBMX 100 μM, 30 min; RXFP1 versus RXFP2 or pcDNA
[4] = test system: RXFP2/1; test: Single-cell FRET cAMP; settings: for EC50: pmEpac2, RXFP2/1
[5] = molecular target: T1, RXFP2 (Homo sapiens, UniProt Q8WXD0); test: Single-cell FRET cAMP; settings: for cellular response to sub-picomolar peptide: RXFP2, pmEpac2
T1 sequence (Q8WXD0 whole entry, species assumed): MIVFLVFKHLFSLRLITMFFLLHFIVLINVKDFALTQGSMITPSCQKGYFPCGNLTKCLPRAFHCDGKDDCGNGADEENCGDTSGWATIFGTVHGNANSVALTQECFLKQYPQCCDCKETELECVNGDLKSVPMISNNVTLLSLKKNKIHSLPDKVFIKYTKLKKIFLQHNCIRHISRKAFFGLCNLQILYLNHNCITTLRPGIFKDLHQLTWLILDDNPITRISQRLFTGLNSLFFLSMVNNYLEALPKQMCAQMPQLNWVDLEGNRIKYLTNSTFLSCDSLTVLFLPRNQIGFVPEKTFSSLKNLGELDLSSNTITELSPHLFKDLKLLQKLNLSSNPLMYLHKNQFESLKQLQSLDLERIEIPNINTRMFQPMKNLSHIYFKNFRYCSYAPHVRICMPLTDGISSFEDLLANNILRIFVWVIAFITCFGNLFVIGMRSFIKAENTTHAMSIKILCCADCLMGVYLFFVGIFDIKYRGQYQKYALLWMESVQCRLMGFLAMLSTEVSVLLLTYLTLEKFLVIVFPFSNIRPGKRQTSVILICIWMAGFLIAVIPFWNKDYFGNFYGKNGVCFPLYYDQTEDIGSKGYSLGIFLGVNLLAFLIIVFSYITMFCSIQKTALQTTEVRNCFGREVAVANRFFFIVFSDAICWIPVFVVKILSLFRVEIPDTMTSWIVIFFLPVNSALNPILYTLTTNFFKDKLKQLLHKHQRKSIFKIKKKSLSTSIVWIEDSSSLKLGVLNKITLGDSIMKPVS

[6] = molecular target: T1, RXFP2; test: Single-cell FRET cAMP
[7] = molecular target: T2, RXFP1 (Rattus norvegicus, UniProt Q6R6I6); test: Single-cell FRET cAMP; settings: rat cardiac fibroblasts
T2 sequence (Q6R6I6 1-758): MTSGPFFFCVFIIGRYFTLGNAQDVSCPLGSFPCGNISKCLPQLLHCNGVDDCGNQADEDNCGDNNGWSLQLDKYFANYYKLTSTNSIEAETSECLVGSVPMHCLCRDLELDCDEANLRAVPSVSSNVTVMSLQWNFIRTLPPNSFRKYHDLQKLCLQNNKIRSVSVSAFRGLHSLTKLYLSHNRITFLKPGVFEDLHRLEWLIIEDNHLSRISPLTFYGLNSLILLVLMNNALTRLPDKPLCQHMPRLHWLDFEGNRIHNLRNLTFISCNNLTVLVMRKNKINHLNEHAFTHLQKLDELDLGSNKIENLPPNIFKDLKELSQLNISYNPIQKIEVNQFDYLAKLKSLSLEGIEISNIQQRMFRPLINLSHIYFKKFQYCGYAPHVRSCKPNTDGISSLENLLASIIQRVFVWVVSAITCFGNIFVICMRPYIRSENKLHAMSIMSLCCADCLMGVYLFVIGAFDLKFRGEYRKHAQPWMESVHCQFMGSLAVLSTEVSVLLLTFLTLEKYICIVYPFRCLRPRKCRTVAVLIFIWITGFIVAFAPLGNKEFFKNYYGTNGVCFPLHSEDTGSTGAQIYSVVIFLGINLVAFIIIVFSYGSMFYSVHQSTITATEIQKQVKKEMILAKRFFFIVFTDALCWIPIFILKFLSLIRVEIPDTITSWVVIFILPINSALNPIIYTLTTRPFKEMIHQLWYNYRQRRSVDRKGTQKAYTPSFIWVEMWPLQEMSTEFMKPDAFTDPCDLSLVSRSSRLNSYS

[8] = molecular target: T3, RXFP1 (Homo sapiens, UniProt Q9HBX9); test: Single-cell FRET cAMP; settings: HeLa, forskolin 1 μM
T3 sequence (Q9HBX9 1-757): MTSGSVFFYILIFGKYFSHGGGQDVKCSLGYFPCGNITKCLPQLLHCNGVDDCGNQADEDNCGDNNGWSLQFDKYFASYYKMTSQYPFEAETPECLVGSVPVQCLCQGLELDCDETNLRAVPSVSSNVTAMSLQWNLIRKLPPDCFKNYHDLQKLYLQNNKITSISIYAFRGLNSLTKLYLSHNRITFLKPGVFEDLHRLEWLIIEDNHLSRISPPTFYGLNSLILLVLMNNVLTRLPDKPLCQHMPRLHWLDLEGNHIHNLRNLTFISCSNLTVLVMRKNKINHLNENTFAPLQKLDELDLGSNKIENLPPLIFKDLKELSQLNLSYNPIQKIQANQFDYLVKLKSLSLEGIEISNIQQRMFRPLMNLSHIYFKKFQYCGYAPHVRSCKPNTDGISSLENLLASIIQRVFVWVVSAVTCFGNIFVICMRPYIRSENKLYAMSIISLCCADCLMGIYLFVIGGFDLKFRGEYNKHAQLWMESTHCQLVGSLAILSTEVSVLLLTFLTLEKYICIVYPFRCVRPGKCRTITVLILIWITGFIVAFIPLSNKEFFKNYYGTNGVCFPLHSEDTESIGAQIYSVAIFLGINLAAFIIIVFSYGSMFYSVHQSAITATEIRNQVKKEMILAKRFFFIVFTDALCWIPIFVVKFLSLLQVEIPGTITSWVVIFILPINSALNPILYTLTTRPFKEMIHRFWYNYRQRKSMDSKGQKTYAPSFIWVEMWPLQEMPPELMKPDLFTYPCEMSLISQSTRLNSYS

[9] = molecular target: T3, RXFP1; test: Single-cell FRET cAMP
[10] = test system: PDE4D3 / RXFP1 signalosome; test: PDE4D3; settings: 5 min, n=3
[11] = test system: RXFP1/2; test: Single-cell FRET cAMP; settings: relaxin 10 aM–100 μM, RXFP1/2, pmEpac2
[12] = test system: RXFP1
[13] = test system: AC2-HA / RXFP1 signalosome; test: AC2-HA co-immunoprecipitation from HEK293 cells co-expressing FLAG-RXFP1; settings: 5 min, n=3
[14] = test system: tRXFP1-703; test: Single-cell FRET cAMP
[15] = test system: HEK293 cells; test: Single-cell FRET control, HEK293 cells expressing pmEpac2 alone; settings: no RXFP1, relaxin 1 nM
[16] = test system: tRXFP1-747; test: Single-cell FRET cAMP; settings: tRXFP1-747, glEpac2
[17] = molecular target: T3, RXFP1; test: Single-cell FRET cAMP; settings: first phase, biphasic fit, 5 min AUC, glEpac2, HEK293-RXFP1; mean±s.e.m.
[18] = test system: RXFP1 S755A; test: Single-cell FRET cAMP; settings: glEpac2

O=S(=O)(NCCNC/C=C/c1ccc(Br)cc1)c1cccc2cnccc12 [H89]
effect on cAMP response to sub-picomolar (10 fM) relaxin [1]: no further increase in cAMP | effect on basal cAMP [2]: basal cAMP levels were significantly increased

CC(C)Cn1c(=O)n(C)c(=O)c2[nH]cnc21 [IBMX, 3-isobutyl-1-methylxanthine]
effect on biphasic relaxin concentration–response curve [1]: abolished the biphasic concentration–response curve | effect on cAMP response to sub-picomolar (10 fM) relaxin [1]: no further increase following stimulation with 10 fM relaxin | effect on basal cAMP, RXFP1-dependence [3]: significantly increased basal cAMP only in cells expressing RXFP1 | effect on basal cAMP [2]: significantly increased basal cAMP

CCCCCCOC(=O)[C@]1(O)C[C@@H]2O[C@@]1(C)n1c3ccccc3c3c4c(c5c6ccccc6n2c5c31)C(=O)NC4 [KT5720]
effect on cAMP response to sub-picomolar (10 fM) relaxin [1]: no further increase in cAMP | effect on basal cAMP [2]: basal cAMP levels were significantly increased

O=C(Nc1cc(C(=O)Nc2ccc(S(=O)(=O)O)cc2S(=O)(=O)O)cc(C(=O)Nc2ccc(S(=O)(=O)O)cc2S(=O)(=O)O)c1)Nc1cc(C(=O)Nc2ccc(S(=O)(=O)O)cc2S(=O)(=O)O)cc(C(=O)Nc2ccc(S(=O)(=O)O)cc2S(=O)(=O)O)c1 [NF449]
effect on cAMP response to sub-picomolar (10 fM) relaxin [1]: significantly inhibited the 10 fM relaxin response

CCCCOc1cc(CC2CNC(=O)N2)ccc1OC (centres unmarked) [Ro 20-1724]
effect on cAMP response to sub-picomolar (10 fM) relaxin [1]: no further increase following stimulation with 10 fM relaxin | effect on basal cAMP [2]: significantly increased basal cAMP

CN(C(=O)CCCOc1ccc2[nH]c(=O)ccc2c1)C1CCCCC1 [cilostamide]
effect on cAMP response to sub-picomolar (10 fM) relaxin [1]: remained responsive to stimulation with 10 fM relaxin | effect on basal cAMP [2]: no significant effect

C[C@H]1O[C@@H](n2cnc3c(N)ncnc32)C[C@@H]1OP(=O)(OCCSC(=O)C(C)(C)C)OCCSC(=O)C(C)(C)C [ddAB, 2′,5′-dd-3′-AMP-bis(tBuSATE)]
effect on cAMP response to sub-picomolar (10 fM) relaxin [1]: completely abolished the response to 10 fM relaxin

O=C1OC2(c3ccccc31)c1ccc(O)c(O)c1Oc1c2ccc(O)c1O [gallein]
effect on cAMP response to sub-picomolar (10 fM) relaxin [1]: completely abolished the cAMP accumulation stimulated by 10 fM relaxin

I: PTPEMREKLCGHHFVRALVRVCGGPRWSTEA / II: AAATNPARYCCLSGCTQQDLLTLCPY (disulfide I:10-II:11, I:22-II:24, II:10-II:15) [INSL3]
cAMP accumulation at sub-picomolar concentrations ([4]; RXFP2/1, pmEpac2): not the closely related peptide INSL3, increased cAMP accumulation at sub-picomolar concentrations | EC50 ([4]; read-out: INSL3 EC50, mean±s.e.m.): 0.26 ± 0.04 nM | EC50 [5]: 1.42 ± 0.92 nM | cellular response to sub-picomolar peptide [5]: no evidence of a cellular response | EC50 [6]: 7.74 ± 1.67 nM

PTX
effect on shape of relaxin concentration–response curve ([7]; PTX pre-treatment): revealed a biphasic, stimulatory concentration–response curve | effect on cAMP response to sub-picomolar (10 fM) relaxin [1]: did not affect the cAMP response to sub-picomolar concentrations of relaxin | effect on maximal / classical cAMP response to relaxin [1]: the maximal cAMP response to relaxin was enhanced | effect on shape of relaxin concentration–response curve ([8]; PTX 100 ng/ml, 16 h): revealed the biphasic concentration–response curve

Relaxin
cAMP response to sub-picomolar relaxin ([7]; forskolin 1 μM, without PTX): significant increase in cAMP, which then declined within the classical concentration range | Relaxin EC50 1 ([9]; first phase, biphasic fit, 5 min AUC, pmEpac2, HEK293-RXFP1, mean±s.e.m.): 10.93±0.92 aM | saturation of pmEpac2 sensor / response relative to FIP ([9]; maximal relaxin 100 nM versus FIP (10 μM forskolin, 100 μM IBMX, 100 nM PGE1)): did not saturate the pmEpac2 sensor | cAMP accumulation at sub-picomolar concentrations ([4]; RXFP2/1, pmEpac2): increased cAMP accumulation at sub-picomolar concentrations | Relaxin EC50 1 ([4]; first phase, pmEpac2, RXFP2/1 (RXFP2-ectodomain, RXFP1-transmembrane/C-terminus), mean±s.e.m.): 7.86±1.30 aM | EC50 ([4]; read-out: Relaxin EC50 2, second phase, mean±s.e.m.): 0.33 ± 0.08 nM | biphasic cAMP response ([4]; relaxin 10 aM–100 μM, RXFP2/1, pmEpac2): a biphasic response was evident | cAMP response to relaxin ([8]; without PTX, glEpac2): significant concentration-dependent increase in cAMP, which was maintained within the classical relaxin concentration range | association of PDE4D3 with RXFP1 / regulatory sub-complex ([10]; relaxin 10 nM): reduces the association between RXFP1 and PDE4D3 or AC2 | association of PDE4D3 with RXFP1 / regulatory sub-complex ([10]; relaxin 10 fM): not 10 fM | biphasic cAMP response [11]: not RXFP1/2 | cAMP response [12]: no detectable cAMP response | association of AC2 with RXFP1 / stimulatory sub-complex ([13]; relaxin 10 nM): reduces the association between RXFP1 and PDE4D3 or AC2 | association of AC2 with RXFP1 / stimulatory sub-complex ([13]; relaxin 10 fM): not 10 fM | response to sub-picomolar relaxin ([14]; tRXFP1-703 (truncated following helix 8), glEpac2): remained responsive to stimulation with sub-picomolar concentrations of relaxin | maximal cAMP response to relaxin ([14]; tRXFP1-703, glEpac2): reduced following truncation | cAMP response [15]: no detectable cAMP response | cAMP response to sub-picomolar relaxin, effect of mutation [16]: no effect | maximal cAMP response to relaxin [16]: reduced through tRXFP1-747 | Relaxin EC50 1 [17]: 140.34±20.73 aM | cAMP response to sub-picomolar relaxin, effect of mutation [18]: no effect | cellular response to sub-picomolar peptide [5]: no evidence of a cellular response | EC50 ([5]; read-out: Relaxin EC50 2, pmEpac2, HEK293-RXFP2, 5 min AUC, mean±s.e.m.): 18.1 ± 3.84 nM | EC50 ([6]; read-out: Relaxin EC50 2, glEpac2, HEK293-RXFP2, 5 min AUC, mean±s.e.m.): 57.7 ± 6.94 nM

cholera toxin
effect on cAMP response to sub-picomolar (10 fM) relaxin [1]: response to 10 fM relaxin reaching the maximal relaxin response | effect on basal cAMP [2]: potentiated basal
